Measurements from patent US10537552B2, “Substituted 5-hydroxyoxindoles and their use as analgesics and fever reducers” (CARAFE DRUG INNOVATION, LLC, priority 2015, dated 2020).
Where “and” joins values, the source holds several entries; their conditions need not be identical. Equal entries are not always repeated.

Legend:
[1] = test system: liver (acute liver toxicity); assay: plasma aminotransferase activity (ALT, AST) after intragastric dosing; format: in vivo, C57BL/6 mice; settings: for AST / ALT: individual mice 1-8; for ALT, Mean / AST, Mean: mean of 8 mice; for hepatotoxicity, overall assessment (ALT, AST, pathohistology): mice, intragastric, summary statement
Experimental: This example was performed to determine if acute liver toxicity results from oral administration of 5-hydroxy-7-methyloxindole (CaRafe Drug Innovation, LLC) compared to the known acute liver toxicity produced by acetaminophen.
(§1) Acetaminophen was acquired from Sigma-Aldrich Corp. (St. Louis, Mo., USA); 5-hydroxy-7-methyloxindole was provided by CaRafe Drug Innovation, LLC (Norristown, Pa., USA) in the form of a powder. […] Based on the efficacy testing performed at Drexel University, 5-hydroxy-7-methyloxindole was suspended in 6% Tween® 20 reagent with vortexing. This procedure provided a crude suspension, but it precipitated after some time, therefore vortexing was repeated prior to each injection. Acetaminophen was prepared in the same vehicle (6% Tween® 20 reagent) using light magnetic stirring.
Ten-week old male C57BL/6 mice were used in all of the experiments. All protocols were approved before study initiation by the Ethics Committee of University of Zagreb School of Medicine (Zagreb, Croatia) and the study was conducted in accordance with accepted standards of humane animal care.
(§2) In all experiments, mice were fasted overnight and then allocated randomly to receive either acetaminophen or equimolar dose of 5-hydroxy-7-methyloxindole by the intragastric route. Food was returned 4 h after the treatment. The two experimental groups were:
(§3) (a) Lower-dose group: Mice were administered acetaminophen (300 mg/kg) or 5-hydroxy-7-methyloxindole (324 mg/kg). After 7 h, the mice were sacrificed and liver and blood samples were taken for the analysis.
(§4) Seven hours after receiving the second injection, mice were sacrificed and liver and blood samples were taken for analysis.
After collection, the blood samples were centrifuged, and plasma was separated and stored at −80° C. for 24 h. Activities of ALT (alanine transaminase) and of AST (aspartate transaminase) in plasma were determined using standard laboratory techniques in a clinical diagnostic laboratory.

[2] = test system: liver (acute liver toxicity); assay: liver histology (pathohistological examination); format: in vivo, C57BL/6 mice
Experimental: as §2, §3, §4
A portion of the liver lobes of each mouse was fixed in 4% buffered paraformaldehyde, dehydrated in increasing concentrations of ethanol, and embedded in paraffin. Then, sections of tissue were cut to […] thickness using a rotary microtome, stained with hematoxylin and eosin, and then analyzed under a microscope.

opioid receptor = opioid receptor binding assay, non-selective, [3H]-naloxone; parameters: species or system rat
Experimental: The non-selective assay was performed according to the procedure described in Childers, European Journal of Pharmacology, 55:11-18, 1979, which is incorporated by reference. In summary, adult Male Sprague-Dawley rats were killed by decapitation and the brains rapidly removed and placed in ice-cold buffer. The cerebral cortex was dissected and homogenized in buffer and the homogenates were further centrifuged. The binding experiments were performed at 25° C. for 40 min. Reaction mixtures contained tissue suspension, unlabeled drug and [^3H]-naloxone (1 nM) radioligand.
(§5) An inhibition greater than about 50% represented significant effects of the test compound. An inhibition of about 25% to about 50% was indicative of weak to moderate effects. An inhibition less than about 25% are not considered significant and may be primarily attributable to variability of the signal around the control level.

COX1 (h) = molecular target: T1, COX1 (h) (Homo sapiens, UniProt P23219); assay: COX1 enzyme assay; format: biochemical
T1 construct: host or cells: Sf9 cells
T1 sequence (P23219 24-599): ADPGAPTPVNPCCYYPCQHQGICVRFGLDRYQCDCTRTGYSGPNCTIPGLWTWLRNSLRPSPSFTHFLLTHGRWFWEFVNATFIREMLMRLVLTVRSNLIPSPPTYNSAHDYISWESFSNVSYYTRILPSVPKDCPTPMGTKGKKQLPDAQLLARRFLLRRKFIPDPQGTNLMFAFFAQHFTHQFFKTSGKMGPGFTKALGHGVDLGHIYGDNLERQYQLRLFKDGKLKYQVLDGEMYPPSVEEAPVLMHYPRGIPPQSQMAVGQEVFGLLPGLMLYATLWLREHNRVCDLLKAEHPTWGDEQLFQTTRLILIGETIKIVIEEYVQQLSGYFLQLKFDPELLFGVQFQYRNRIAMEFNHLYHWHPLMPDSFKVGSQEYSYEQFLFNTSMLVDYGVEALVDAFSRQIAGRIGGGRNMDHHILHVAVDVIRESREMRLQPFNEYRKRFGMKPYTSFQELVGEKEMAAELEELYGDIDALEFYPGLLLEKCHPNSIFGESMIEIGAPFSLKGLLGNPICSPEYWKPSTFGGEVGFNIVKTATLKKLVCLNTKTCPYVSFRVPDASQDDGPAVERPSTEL
Experimental: The assay was performed according to the procedure described in Glaser, European Journal of Pharmacology, 281:107-111, 1995, which is incorporated by reference. Recombinant enzymes were reconstituted in buffer. The enzyme preparations were preincubated with DMSO vehicle or compounds in DMSO for 5 min at 37° C. and the human recombinant enzyme expressed in Sf9 cells.
as §5

[3] = solubility observed when preparing dosing vehicle; format: physicochemical
Experimental: as §1, with “Based on the efficacy testing performed at Drexel University, 5-hydroxy-7-methyloxindole was suspended in 6% Tween® 20 reagent with vortexing.” left out

[4] = higher-dose protocol: two cumulative injections 2.5 h apart, 7 h after second injection
[5] = lower-dose protocol: acetaminophen 300 mg/kg or 5-hydroxy-7-methyloxindole 324 mg/kg, 7 h
[6] = 5-hydroxy-7-methyloxindole 324 mg/kg intragastric, 7 h

Cc1cc(O)cc2c1NC(=O)C2 [5-hydroxy-7-methyloxindole, 5-Hydroxy-7-methyloxindole]
ALT and AST levels, in words [1, 4]: normal or only minimally elevated levels of ALT and AST
AST ([1]; 5-hydroxy-7-methyloxindole 324 mg/kg intragastric, 7 h after treatment): 80 U/L (2×) and 60 U/L (2×) and 120 U/L and 330 U/L and 170 U/L and 90 U/L
ALT ([1]; 5-hydroxy-7-methyloxindole 324 mg/kg intragastric, 7 h after treatment, 6% Tween 20): 30 U/L (5×) and 20 U/L and 50 U/L (2×)
AST ([1]; 5-hydroxy-7-methyloxindole 540 mg/kg total (two 270 mg/kg) intragastric, 7 h after second injection): 60 (2×) and 120 (3×) and 100 and 70 and 110
ALT ([1]; 5-hydroxy-7-methyloxindole 540 mg/kg total (two 270 mg/kg, 2.5 h apart) intragastric, 7 h after second injection): 20 (3×) and 30 (3×) and 50 (2×)
ALT and AST levels / liver damage, in words [1, 5]: normal or only minimally elevated
ALT, Mean [1, 6]: 34 U/L
AST, Mean [1, 6]: 124 U/L
AST, Mean ([1]; 5-hydroxy-7-methyloxindole 540 mg/kg total, 7 h after second injection): 95 U/L
ALT, Mean ([1]; 5-hydroxy-7-methyloxindole 540 mg/kg total, 7 h after second injection, in U/L): 31.25
hepatotoxicity, overall assessment (ALT, AST, pathohistology) ([1]; 6% Tween 20): devoid of hepatotoxic effect
hepatotoxicity, overall assessment (ALT, AST, pathohistology) ([1]; 6% Tween 20, listed as 5-Hydroxy-7-methyloxindole): significantly less hepatotoxicity than acetaminophen
liver injury on pathohistological examination [2, 4]: without visible liver injury
liver injury on pathohistological examination [2, 5]: no visible sign of liver injury
binding to opioid receptor, in words (opioid receptor): binds minimally, if at all
Mean Inhibition (%) (opioid receptor; test concentration 1 × 10^−5 M, rat cerebral cortex, [3H]-naloxone 1 nM): −9.7%
binding to COX1 receptor, in words (COX1 (h)): binds minimally, if at all
inhibition at 10 µM (COX1 (h); test concentration 1 × 10^−5 M, human recombinant enzyme expressed in Sf9 cells): -29%
solubility ([3]; general statement): low solubility
solubility in saline ([3]; saline, for dosing): not sufficiently soluble
